The source of these data is PubChem BioAssay AID540268 (Broad Institute, 2011).

For orientation: AC50 means the concentration at which the activity in the assay is half-maximal.

The structures appear in SMILES notation. Calls of active or inactive are those of the source. How the calls were made is not given here.

One test can be described thus: reduced viability of parasite-Hsp90 expressing yeast – ATP luminescence, 48 h, cherry-picked samples, anti-malarial Hsp90 inhibitor project, dose response (AID 540268).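 On activity change, negative = inhibition: 0% = neutral control wells and -100% = positive control wells.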 The settings on record: yeast expressing the parasite Hsp90, ATP luminescence.
On to `COc1cccc(N=Nc2ccc(O)c3ncccc23)c1`, for which the half-maximal activity concentration (AC50) was 3.57 µM.

As to `CC1CC(C)C(=NNC(N)=O)C(C(O)CC2CCC(=O)NC2=O)C1` (stereo not drawn), the AC50 was less than 0.195 µM.

Consider `O=C(C1CCN(C2CC(=O)N(c3cccc(Cl)c3)C2=O)CC1)N1CCCC1` (stereo not drawn), for which the AC50 was 3.94 µM.

For the compound `O=C(/C=C/c1cccc(Cl)c1)c1ccc([N+](=O)[O-])o1`, the AC50 was 0.84 µM.

On to `COc1cc(N2C(=O)C=CC2=O)c(OC)cc1Cl`, for which the AC50 was 1.77 µM.

For the compound `O=C1C=CC(=O)N1c1ccc2ccccc2c1`, the AC50 was 0.568 µM.

In the case of `CC(=NNC(=S)N1CC2CCC(CC2)C1)c1nccs1`, the AC50 was 25.7 µM.

`Cc1ccc(N=c2ssnc2Cl)cc1`: the AC50 is 3.28 µM.

Regarding `COc1ccc2c(c1)[C@H]1[C@H](CO2)[C@H](c2ccccc2)[C@]2(C)C(=O)Nc3ccc(C)cc3C(=O)N12`, the AC50 was 4.75 µM.

For the compound `N#C/C(=C\c1cccc([N+](=O)[O-])c1)C(=O)NCc1ccc(Cl)cc1`, the AC50 is 6.75 µM.

With `CCOc1ccc(C(Nc2cccnc2)c2cc(Cl)c3cccnc3c2O)cc1` (stereo not drawn), the concentration at half-maximal activity (AC50) is 1.5 µM.

Regarding `O=[N+]([O-])c1cc(S(=O)(=O)C(F)(F)F)ccc1Sc1nc2ccccc2s1`, the AC50 is 3.43 µM.

With `O=C(OCC(=O)C12CC3CC(CC(C3)C1)C2)c1ccc(O)cc1`, the half-maximal activity concentration (AC50) is 1.06 µM.

As for `O=C(O)c1cccc2c1Cc1cc([N+](=O)[O-])ccc1-2`, the AC50 was 0.808 µM.

As for `Cc1ccc(OCc2n[nH]c(=S)n2C2CCCCC2)cc1`, the AC50 was 23.6 µM.

For the compound `CCN(C(=O)C1CCCN(c2nc(-c3ccc(OC)cc3)no2)C1)c1ccc(OC)cc1` (stereo not drawn), the AC50 was 4.85 µM.

On to `O=C1C(F)=CC(COC(c2ccccc2)(c2ccccc2)c2ccccc2)OC1n1cc(F)c(=O)[nH]c1=O` (stereo not drawn), for which the AC50 is 0.718 µM.

In the case of `Cc1ccc(N2C(=O)C3C4C=CC(CNC(=S)N5CCN(c6cccc(C)c6)C(C)C5)(O4)C3C2=O)cc1` (stereo not drawn), the AC50 was 4.65 µM.

As for `CCC1=NN2C(=N)/C(=C\c3cccn3-c3ccc(C)cc3C)C(=O)N=C2S1`, the AC50 is 8.14 µM.

On to `CCCc1cc(=O)oc2cc(OCc3ccc(C(=O)O)cc3)ccc12`, for which the AC50 was 2.73 µM.

Take `CC[C@@H]1Cc2cc(O)ccc2C2=C1c1ccc(O)cc1C[C@H]2CC`: the AC50 was 7.76 µM.

As to `CCCCCCCCCCCCCCCC[N+](C)(C)Cc1ccc(F)cc1`, the AC50 was 0.213 µM.

As for `S=C1SCN(Cc2cccnc2)CN1Cc1cccnc1`, the half-maximal activity concentration (AC50) was 4.07 µM.

Consider `CN(C)/C=C/C(=O)/C=C/c1cn(-c2ncc(C(F)(F)F)cc2Cl)c2ccccc12`, for which the AC50 was 4.18 µM.

For the compound `N#CSCC(=O)c1cccc2ccccc12`, the AC50 is 1.92 µM.

As for `CCCc1cc(NCc2ccccn2)n2nc(C)c(-c3ccccc3)c2n1`, the AC50 was 1.29 µM.

Turning to `O=c1c2ccccc2nc(-c2ccc(-c3ccccc3)cc2)n1-c1ccncc1`, the AC50 is 5.21 µM.

Consider `COc1ccc(NC2CCN(C3CC(=O)N(c4ccc(F)c(Cl)c4)C3=O)CC2)cc1` (stereo not drawn), for which the AC50 was 2.61 µM.

As to `O=C1c2cc(F)ccc2-n2c1nc1ccccc1c2=O`, the half-maximal activity concentration (AC50) was 2.96 µM.

In the case of `CC(=O)N(C1=C(Cl)C(=O)c2ccccc2C1=O)C1CCCCC1`, the AC50 was less than 0.195 µM.

With `Oc1ccc(C2=NN(c3ccccc3)C(c3ccc(F)cc3)C2)cc1` (stereo not drawn), the AC50 is 3.35 µM.

For the compound `CC(=O)N(C)c1ccc(OCC(O)Cn2c3ccc(Cl)cc3c3cc(Cl)ccc32)cc1` (stereo not drawn), the AC50 was 4.56 µM.

For `O=C1C=CC(=Nc2ccc(F)cc2)O1`, the AC50 was 1.24 µM.

In the case of `CCN1/C(=C/c2ccc3cc(C)cc(C)c3[n+]2CC)Sc2cc(C)ccc21`, the AC50 is 2.91 µM.

As to `COC(=O)c1ccc(NC(=O)c2cn(-c3ccccc3)nc2-c2ccncc2)cc1`, the AC50 is 4.08 µM.

As to `Cc1cc(-c2cc(-c3ccc(Cl)cc3)nc(N)c2C#N)co1`, the AC50 is 5.34 µM.

Take `Cc1cc(N2CCN(C(=O)c3ccco3)CC2)n2ncc(-c3ccccc3)c2n1`: the half-maximal activity concentration (AC50) was 2.31 µM.

Turning to `O=C(Nc1ccccc1)C(Cl)C(=O)c1ccccc1` (stereo not drawn), the AC50 was 0.532 µM.

Consider `COc1ccc(Nc2cnn(-c3nc4ccccc4s3)c(=O)c2Cl)cc1`, for which the half-maximal activity concentration (AC50) was 3.21 µM.

Turning to `Cc1[nH]n(-c2ccc([N+](=O)[O-])cc2)c(=O)c1C=NCCN1CCN(C(=O)c2ccccc2F)CC1`, the AC50 was 6.44 µM.

On to `COC(=O)C1CN(C#N)N(c2ccc(Cl)cc2)C12c1ccccc1-c1ccccc12` (stereo not drawn), for which the AC50 is 4.07 µM.

For `O=C(/C(=C/O)N=Nc1cccc(C(F)(F)F)c1)c1ccccc1`, the AC50 was 4.14 µM.

`O=c1cc2oc3cc(O)c(O)cc3c(-c3ccccc3[N+](=O)[O-])c-2cc1O`: the AC50 was 3.19 µM.

In the case of `CC1=C(C(=O)OCc2ccccc2)C(/C=C/c2ccccc2)NC(=S)N1` (stereo not drawn), the AC50 was less than 0.195 µM.

In the case of `C/C(=N\Nc1ncnc2sc(C)c(C)c12)c1ccccn1`, the AC50 was 2.01 µM.

On to `Cc1cc(C(C)(C)CC(C)(C)C)ccc1OCCOCC[N+](C)(C)Cc1ccccc1`, for which the AC50 is 7.8 µM.

Turning to `Cc1ccccc1Oc1cc(-n2ncc(Cl)c(Cl)c2=O)ncn1`, the AC50 is 1.11 µM.

With `O=C(NNC1=C(C(=O)C(F)(F)F)CCC1)c1ccc(Cl)cc1`, the AC50 is 1.34 µM.

In the case of `C/C(=N\NC(=O)c1cc2ccccc2cc1O)c1ccccn1`, the AC50 was 8.31 µM.

On to `CCOc1ccccc1-c1c2cc(O)c(=O)cc-2oc2cc(O)c(O)cc12`, for which the AC50 is 4.21 µM.

Regarding `COc1ccc2c(c1)[C@H]1[C@H](CO2)[C@H](c2ccccc2)[C@]2(C)C(=O)Nc3ccc(Cl)cc3C(=O)N12`, the concentration at half-maximal activity (AC50) is 1.8 µM.

`O=C(/C=C/N1CCOCC1)c1ccc(-c2ccccc2)cc1`: the AC50 was 4.23 µM.

Regarding `Cc1cccc(Nc2nc(N)c([N+](=O)[O-])c(N3CC(C)CC(C)C3)n2)c1` (stereo not drawn), the AC50 was 3.22 µM.

As to `Cc1cc(N2CCN(C(=O)c3ccco3)CC2)n2nc(C)c(-c3ccccc3)c2n1`, the AC50 was 8.36 µM.

As for `CC(=O)N1N=C(c2ccccc2)OC1c1ccc([N+](=O)[O-])s1` (stereo not drawn), the AC50 is 8.65 µM.

On to `CCCCCCCCNC(=O)/C(C#N)=C/c1ccccc1[N+](=O)[O-]`, for which the AC50 is 4.69 µM.

For the compound `Cc1ccc(-n2ncc3c2CCCC3NC(=O)c2ccccc2N2CCOCC2)cc1C` (stereo not drawn), the AC50 was 0.984 µM.

As to `Cc1cc(C)cc(N2C(=O)C=CC2=O)c1`, the AC50 is less than 0.195 µM.

For the compound `CC(=NNc1nc2ccccc2o1)c1ncccn1`, the AC50 is 1.33 µM.

As for `Cc1cccc(Nc2nc(N)c([N+](=O)[O-])c(N3CCCC(C)C3)n2)c1` (stereo not drawn), the AC50 was 2.03 µM.

With `CC(C)(C)C(O)C(Cc1ccccc1Cl)n1cncn1` (stereo not drawn), the AC50 was less than 0.195 µM.

Consider `CCCC(=O)NC(c1ccc(Cl)cc1)c1ccc2cccnc2c1O` (stereo not drawn), for which the AC50 is 7.47 µM.

Turning to `O=C1[C@@H]2C(c3cccnc3)=NO[C@@H]2C(=O)N1c1ccc(Br)cc1`, the concentration at half-maximal activity (AC50) was 3.1 µM.

With `O=C(N/N=C/c1ccc(O)c2ncccc12)c1cccc(Br)c1`, the AC50 was 5.08 µM.

For `CCN1C/C(=C\c2cccc([N+](=O)[O-])c2)C(=O)/C(=C/c2cccc([N+](=O)[O-])c2)C1`, the half-maximal activity concentration (AC50) was 5.63 µM.

Regarding `COc1ccc(NC(=O)/C(Cl)=C(/Cl)S(=O)Cc2ccccc2)cn1` (stereo not drawn), the AC50 is 2.54 µM.

As to `c1ccc(-c2nnc(-c3ccccn3)nc2NC2CCCCC2)cc1`, the concentration at half-maximal activity (AC50) is 0.393 µM.

For the compound `COc1ccc(N2CCN(c3c(S(=O)(=O)c4ccccc4)cnc4ccc(OC)cc34)CC2)cc1`, the AC50 is 3.9 µM.

For the compound `COc1ccc(C(=O)NC(=S)NNC(=O)c2cnccn2)cc1`, the AC50 was 2.98 µM.

Turning to `Oc1c(C(Nc2cccc(C(F)(F)F)c2)c2ccncc2)ccc2cccnc12` (stereo not drawn), the AC50 was 5.15 µM.

Consider `CCCOC(=O)c1ccc(Oc2cn[nH]c2-c2ccc(OCC)cc2O)cc1`, for which the AC50 is less than 0.195 µM.

For the compound `O=[N+]([O-])c1ccc(S(=O)Cc2ccccc2)c([N+](=O)[O-])c1` (stereo not drawn), the AC50 is 2.55 µM.

As to `CC(CCc1ccccc1)NC(=O)c1ccc(Br)cc1` (stereo not drawn), the concentration at half-maximal activity (AC50) is 4.71 µM.

With `O=C(N/N=C/c1sc2ccccc2c1O)c1ccccc1`, the concentration at half-maximal activity (AC50) was 1.13 µM.

Regarding `Oc1ccc(-c2c(-c3ccsc3)sc3ccccc23)cc1`, the half-maximal activity concentration (AC50) was 2.72 µM.

With `Cc1cccc(/C=C/C(=O)c2ccc([N+](=O)[O-])o2)c1`, the half-maximal activity concentration (AC50) is 1.56 µM.

Turning to `O=C(Nc1ccccc1)c1nnsc1S(=O)c1ccc(Cl)cc1` (stereo not drawn), the AC50 is less than 0.195 µM.

On to `CCN(CC)N=Nc1[nH]nc2nc(C)cc(C)c12`, for which the AC50 was 4.33 µM.

`O=C1Nc2ccc(Br)cc2/C1=C/C(=O)c1ccccc1`: the AC50 is 1.42 µM.

Turning to `COc1cc(C=NO)nc(-c2ccccn2)c1`, the AC50 is 2.32 µM.

With `O=C1OC(c2ccccc2)(c2ccc3cc(O)ccc3c2)c2ccccc21` (stereo not drawn), the AC50 was 9.13 µM.

As to `C(=NN=C1c2ccccc2-c2ccccc21)c1c[nH]c2ccccc12`, the AC50 was 2.72 µM.

For the compound `COc1ccc2oc(/C=C/N(C)C)c(C(=O)c3ccc(Cl)cc3)c2c1`, the AC50 was 3.78 µM.

With `Oc1c(Br)cc(Br)c(/C=N/n2c(-c3ccccc3)n[nH]c2=S)c1Br`, the AC50 was 10.4 µM.

With `C[C@@H]1C[C@@H]([C@H](O)CC2CC(=O)NC(=O)C2)C(=O)[C@@H](C)C1`, the half-maximal activity concentration (AC50) is less than 0.195 µM.

For `Cc1ccc(OCC(=O)NNC(=S)NC(=O)C2CC2)c(C)c1`, the AC50 is 4.16 µM.

As to `COc1cc(SC)ccc1C(=O)Nc1nc2ccccc2[nH]1`, the AC50 was 1.96 µM.

On to `COc1ccc(O)c(-c2cc(-c3cccc(Br)c3)n[nH]2)c1`, for which the AC50 was 7.23 µM.

On to `O=[N+]([O-])c1ccc(Sc2cccc[n+]2[O-])c2nonc12`, for which the AC50 was 6.88 µM.

Turning to `O=C(/C=C/c1ccccc1[N+](=O)[O-])c1ccccc1Br`, the AC50 was 3.2 µM.

With `O=[N+]([O-])c1ccc(NC(=S)NCCc2ccc(Cl)cc2)cc1`, the AC50 was 4.25 µM.

Take `CCOc1ccc(Br)cc1C1=NN(C(C)=O)C(c2ccc([N+](=O)[O-])s2)O1` (stereo not drawn): the AC50 was 8.12 µM.

On to `CCOC(=O)/C=C/C(=O)Nc1cccc([N+](=O)[O-])c1`, for which the AC50 was 3.5 µM.

Consider `CSc1nc2ccc(S(=O)(=O)NC3CCCCC3)cc2s1`, for which the AC50 is 2.92 µM.

Still in this test, the particulars now being: yeast expressing the parasite Hsp90, ATP luminescence, at 26 µM (top of the series).
On to `CCCCN1C(=O)/C(=C/C=C2\Oc3ccccc3N2CC)SC1=S`, for which the activity change, negative = inhibition was 32.9% (inactive).

`NC(=O)/C=C\C(=O)Nc1cccc(C(F)(F)F)c1`: the activity change, negative = inhibition is 12.6% (inactive).

As for `C/C(CC(=O)Nc1cc(C)ccn1)=N\NC(=O)c1cccc(C)c1O`, the activity change, negative = inhibition was -51.7% (inactive).

`O=C(/C(=C/c1cccc(Cl)c1)c1nc2ccccc2[nH]1)c1ccccc1`: the activity change, negative = inhibition was 49.8% (inactive).
